Earlier results as cited in patent US20070190090A1, “SIALAGOGUE BASED ORAL CARE PRODUCTS” (WhiteHill Oral Technologies, Inc., priority 2006, published 2007).

Columns and labels:
[1] = test system: certain microorganisms (Gram positive and Gram negative bacteria); conditions: toxicity varying for Gram positive and Gram negative bacteria
[2] = mice, orally

C/C=C/C=C\CC/C=C/C(=O)NCC(C)C [affinin, N-isobutyl-2E,6Z,8E-decatrienamide]
toxicity to certain microorganisms [1]: toxic
analgesic effect ([2]; doses from 2.5 to 10.0 mg/kg): analgesic effect
deaths ([2]; highest dose (10.0 mg/kg)): two out of five
effect on normal motor activity ([2]; highest dose (10.0 mg/kg)): severe depression of normal motor activity
